# According to EPA's ToxRefDB 2:
# Assays:
# rat [1] = conditions: Sub-acute repeat dose toxicity; Oral; Gavage/Intubation; dose end: 19 day; group: systemic; systemic / in life observation / body weight / body weight + systemic / in life observation / clinical signs / salivation
# rat [2] = conditions: Sub-acute repeat dose toxicity; Oral; Gavage/Intubation; dose end: 14 day; group: systemic; systemic / in life observation / body weight / body weight gain + systemic / in life observation / clinical signs / reduced activity + …
# mouse [3] = conditions: Sub-acute repeat dose toxicity, Oral, Feed, dose end: 15 day, group: systemic
# rat [4] = conditions: Fertility (Segment I); sprague dawley; Oral; Gavage/Intubation; dose end: 1 generation; group: parental; systemic / in life observation / body weight / body weight + systemic / in life observation / clinical signs / salivation + systemic / in …
# rat [5] = conditions: Fertility (Segment I); sprague dawley; Oral; Gavage/Intubation; dose end: 1 generation; group: parental; systemic / in life observation / body weight / body weight + systemic / in life observation / clinical signs / salivation + systemic / in …; remark: listed apart in the source
# dog [6] = conditions: Sub-acute repeat dose toxicity, beagle, Oral, Gavage/Intubation, dose end: 8 day, group: systemic
# rat [7] = conditions: Sub-acute repeat dose toxicity; Oral; Gavage/Intubation; dose end: 38 day; group: systemic; systemic / clinical chemistry / albumin / albumin + systemic / clinical chemistry / creatinine / creatinine + systemic / clinical chemistry…
# rat [8] = conditions: Subchronic oral toxicity in rodents, sprague dawley, Gavage/Intubation, dose end: 90 day, group: systemic, systemic / clinical chemistry / calcium / calcium + systemic / clinical chemistry / cholesterol / cholesterol + systemic / clinical …
# rat [9] = conditions: Peri- and post-natal toxicity study (Segment III), Oral, Gavage/Intubation, dose end: 1 generation
# mouse [10] = conditions: Subchronic oral toxicity in rodents, Feed, dose end: 92 day, group: systemic
# rat [11] = conditions: Sub-acute repeat dose toxicity, sprague dawley, Oral, Feed, dose end: 15 day, group: systemic
# rabbit [12] = conditions: Prenatal developmental toxicity study, new zealand white, Oral, Gavage/Intubation, dose end: 19 GD, group: maternal
# rabbit [13] = conditions: Sub-acute repeat dose toxicity; new zealand white; Oral; Gavage/Intubation; dose end: 5 day; group: systemic; systemic / in life observation / food consumption / food consumption
# rat [14] = conditions: Prenatal developmental toxicity study, sprague dawley, Oral, Gavage/Intubation, dose end: 18 GD
# dog [15] = conditions: Subchronic oral toxicity in nonrodent, beagle, Gavage/Intubation, dose end: 98 day, group: systemic
# rabbit [16] = conditions: Sub-acute repeat dose toxicity, new zealand white, Oral, Gavage/Intubation, dose end: 13 day
# rat [17] = conditions: Subchronic oral toxicity in rodents, sprague dawley, Feed, dose end: 92 day, group: systemic
# dog [18] = conditions: Subchronic oral toxicity in nonrodent, beagle, Feed, dose end: 90 day, group: systemic
# rat [19] = conditions: Combined chronic toxicity/carcinogenicity; other; Oral; Feed; dose end: 102 week; group: systemic; systemic / pathology microscopic / kidney / degeneration + systemic / pathology microscopic / kidney / dilatation + systemic / pathology …
# mouse [20] = conditions: Carcinogenicity, cd1, Oral, Feed, dose end: 19 month, group: systemic
# dog [21] = conditions: Chronic toxicity, beagle, Oral, Feed, dose end: 52 week, group: systemic
# rat [22] = conditions: Subchronic oral toxicity in rodents, sprague dawley, Feed, dose end: 90 day, group: systemic
# rat [23] = conditions: Subchronic oral toxicity in rodents, sprague dawley, Feed, dose end: 13 week, group: systemic, systemic / clinical chemistry / urea nitrogen / urea nitrogen + systemic / clinical chemistry / creatinine / creatinine + systemic / …
# [24] = systemic / in life observation / body weight / body weight + systemic / in life observation / clinical signs / hunched posture + systemic / …
# [25] = systemic / hematology / leukocyte (wbc) count differential / leukocyte (wbc) + systemic / in life observation / clinical signs / abnormal …
# [26] = systemic / in life observation / clinical signs / abnormal feces + systemic / in life observation / clinical signs / salivation
# [27] = group: developmental, developmental / developmental landmark / eye opening / eye opening
# [28] = group: parental, systemic / in life observation / body weight / body weight + systemic / in life observation / body weight / body weight gain + systemic / in…
# [29] = systemic / clinical chemistry / cholesterol / cholesterol + systemic / in life observation / body weight / body weight + systemic / clinical…
# [30] = systemic / hematology / lymphocyte / lymphocyte
# [31] = systemic / in life observation / body weight / body weight + systemic / in life observation / clinical signs / alopecia + systemic / in life…
# [32] = systemic / in life observation / food consumption / food consumption
# [33] = systemic / in life observation / food consumption / food consumption + reproductive / reproductive performance / aborted / aborted + …
# [34] = group: developmental, developmental / developmental malformation / bone / [other] + systemic / in life observation / body weight / fetal weight
# [35] = group: maternal, systemic / in life observation / body weight / body weight + systemic / in life observation / clinical signs / salivation + systemic / in …
# [36] = systemic / in life observation / clinical signs / salivation
# [37] = systemic / in life observation / clinical signs / salivation + systemic / in life observation / clinical signs / emesis
# [38] = group: maternal, reproductive / reproductive performance / aborted / aborted
# [39] = group: systemic, systemic / in life observation / body weight / body weight gain + systemic / in life observation / food consumption / food consumption
# [40] = group: systemic, systemic / in life observation / body weight / body weight gain + systemic / in life observation / food consumption / food consumption + …
# [41] = systemic / in life observation / body weight / body weight
# [42] = systemic / in life observation / body weight / body weight + systemic / in life observation / clinical signs / lacrimation or red-colored …
# [43] = systemic / organ weight / ovary / absolute + systemic / organ weight / ovary / relative to body weight + systemic / organ weight / ovary / …
# [44] = systemic / in life observation / body weight / body weight gain + systemic / clinical chemistry / alkaline phosphatase (alp/alk) / alkaline …
compound,measurement,setting,value
CS(=O)(=O)O.Cc1nccn1-c1ccc(Sc2cccc(C3(C(N)=O)CCOCC3)c2)cc1,LEL,rat [1],100 mg/kg/day
same,LOAEL,rat [1],> 100 mg/kg/day
same,NEL,rat [1],< 100 mg/kg/day
same,NOAEL,rat [1],≥ 100 mg/kg/day
same,LEL,rat [2],200 mg/kg/day
same,LOAEL,rat [2],> 200 mg/kg/day
same,NEL,rat [2],< 200 mg/kg/day
same,NOAEL,rat [2],≥ 200 mg/kg/day
same,LOAEL,mouse [3]; [24],> 1200 mg/kg/day
same,NOAEL,mouse [3]; [24],≥ 1200 mg/kg/day
same,LEL,mouse [3]; systemic / in life observation / body weight / body weight + systemic / in life observation / food consumption / food consumption + systemic…,600 mg/kg/day
same,LEL,rat [4],50 mg/kg/day
same,LOAEL,rat [4],> 50 mg/kg/day
same,NEL,rat [4],15 mg/kg/day
same,NOAEL,rat [4],≥ 50 mg/kg/day
same,LEL,rat [5],50 mg/kg/day
same,LOAEL,rat [5],> 50 mg/kg/day
same,NEL,rat [5],15 mg/kg/day
same,NOAEL,rat [5],≥ 50 mg/kg/day
same,LOAEL,dog [6]; [25],> 60 mg/kg/day
same,NOAEL,dog [6]; [25],≥ 60 mg/kg/day
same,LEL,dog [6]; [26],3 mg/kg/day
same,NEL,dog [6]; [26],< 3 mg/kg/day
same,LEL,rat [7],250 mg/kg/day
same,LOAEL,rat [7],> 250 mg/kg/day
same,NEL,rat [7],< 250 mg/kg/day
same,NOAEL,rat [7],≥ 250 mg/kg/day
same,LEL,rat [8],20 mg/kg/day
same,LOAEL,rat [8],> 150 mg/kg/day
same,NEL,rat [8],5 mg/kg/day
same,NOAEL,rat [8],≥ 150 mg/kg/day
same,LEL,rat [9]; [27],50 mg/kg/day
same,LOAEL,rat [9]; [27],> 50 mg/kg/day
same,NOAEL,rat [9]; [27],≥ 50 mg/kg/day
same,LEL,rat [9]; [28],15 mg/kg/day
same,LOAEL,rat [9]; [28],> 50 mg/kg/day
same,NEL,rat [9]; [28],5 mg/kg/day
same,NOAEL,rat [9]; [28],≥ 50 mg/kg/day
same,LOAEL,mouse [10]; [29],> 600 mg/kg/day
same,NOAEL,mouse [10]; [29],≥ 600 mg/kg/day
same,LEL,mouse [10]; [30],30 mg/kg/day
same,NEL,mouse [10]; [30],< 30 mg/kg/day
same,LOAEL,rat [11]; [31],> 600 mg/kg/day
same,NEL,rat [11]; [31],30 mg/kg/day
same,NOAEL,rat [11]; [31],≥ 600 mg/kg/day
same,LEL,rat [11]; systemic / in life observation / body weight / body weight + systemic / in life observation / food consumption / food consumption,100 mg/kg/day
same,LEL,rabbit [12]; [32],2 mg/kg/day
same,NEL,rabbit [12]; [32],< 2 mg/kg/day
same,LOAEL,rabbit [12]; [33],> 25 mg/kg/day
same,NOAEL,rabbit [12]; [33],≥ 25 mg/kg/day
same,LEL,rabbit [13],10 mg/kg/day
same,LOAEL,rabbit [13],> 100 mg/kg/day
same,NEL,rabbit [13],< 10 mg/kg/day
same,NOAEL,rabbit [13],≥ 100 mg/kg/day
same,LEL,rat [14]; [34],50 mg/kg/day
same,LOAEL,rat [14]; [34],> 50 mg/kg/day
same,NOAEL,rat [14]; [34],≥ 50 mg/kg/day
same,LOAEL,rat [14]; [35],> 50 mg/kg/day
same,NEL,rat [14]; [35],5 mg/kg/day
same,NOAEL,rat [14]; [35],≥ 50 mg/kg/day
same,LEL,"rat [14]; group: maternal, systemic / in life observation / body weight / body weight + systemic / in life observation / food consumption / food consumption",15 mg/kg/day
same,LEL,dog [15]; [36],3 mg/kg/day
same,NEL,dog [15]; [36],< 3 mg/kg/day
same,LOAEL,dog [15]; [37],> 30 mg/kg/day
same,NOAEL,dog [15]; [37],≥ 30 mg/kg/day
same,LEL,rabbit [16]; [38],50 mg/kg/day
same,LOAEL,rabbit [16]; [38],> 200 mg/kg/day
same,NEL,rabbit [16]; [38],10 mg/kg/day
same,NOAEL,rabbit [16]; [38],≥ 200 mg/kg/day
same,LEL,rabbit [16]; [39],10 mg/kg/day
same,NEL,rabbit [16]; [39],< 10 mg/kg/day
same,LOAEL,rabbit [16]; [40],> 200 mg/kg/day
same,NOAEL,rabbit [16]; [40],≥ 200 mg/kg/day
same,LEL,rat [17]; [41],10 mg/kg/day
same,NEL,rat [17]; [41],< 10 mg/kg/day
same,LOAEL,rat [17]; [42],> 100 mg/kg/day
same,NOAEL,rat [17]; [42],≥ 100 mg/kg/day
CC1=C(C(=O)Nc2ccccc2)SCCO1 [Carboxin],LOAEL,dog [18]; [43],17.7 mg/kg/day
same,NEL,dog [18]; [43],5.9 mg/kg/day
same,NOAEL,dog [18]; [43],9 mg/kg/day
same,LEL,dog [18]; systemic / pathology microscopic / parathyroid gland / cyst + systemic / pathology microscopic / pituitary gland / cyst,9 mg/kg/day
same,LEL,rat [19],9 mg/kg/day
same,LOAEL,rat [19],9 mg/kg/day
same,NEL,rat [19],0.8 mg/kg/day
same,NOAEL,rat [19],0.8 mg/kg/day
same,LOAEL,mouse [20]; systemic / in life observation / mortality / mortality,451 mg/kg/day
same,NOAEL,mouse [20]; systemic / in life observation / mortality / mortality + systemic / pathology microscopic / liver / hypertrophy,9 mg/kg/day
same,LEL,mouse [20]; systemic / pathology microscopic / liver / hypertrophy,385 mg/kg/day
same,NEL,mouse [20]; systemic / pathology microscopic / liver / hypertrophy + systemic / pathology microscopic / lung / adenoma,8 mg/kg/day
same,LOAEL,dog [21]; systemic / in life observation / body weight / body weight gain,15 mg/kg/day
same,NEL,dog [21]; [44],1.3 mg/kg/day
same,NOAEL,dog [21]; [44],1.3 mg/kg/day
same,LEL,dog [21]; systemic / in life observation / body weight / body weight gain + systemic / hematology / mean corpuscular (cell) volume (mcv) / mean …,15 mg/kg/day
same,LOAEL,rat [22]; systemic / pathology microscopic / kidney / nephropathy,10.5 mg/kg/day
same,NOAEL,rat [22]; systemic / pathology microscopic / kidney / nephropathy + systemic / in life observation / clinical signs / defecation,5.5 mg/kg/day
same,LEL,rat [23],10 mg/kg/day
same,LOAEL,rat [23],10 mg/kg/day
same,NEL,rat [23],< 10 mg/kg/day
same,NOAEL,rat [23],< 10 mg/kg/day
